Test results as given in patent US12653191B2, “Active compound combinations” (Bayer Aktiengesellschaft, priority 2020, dated 2026).
“And” between values parts separate entries of the source, which are not always exact repeats. Equal values may be shown once.

Experiments:
[1] = test system: Ustilago segetum var. avenae; assay: in vitro-Test with fungal microorganisms, Method B (tables I6-I11); type: cell-based
Experimental: (§1) Example: In Vitro-Test with Fungal Microorganisms
(§2) Wells of 96-well microtiter plates are filled with 30 μl of a preparation of test compound or compound combination in methanol+emulsifier alkylaryl-polyglycol-ether. Thereafter, the solvent is evaporated in a hood. At the next step, 200 μl of liquid growth medium is given, that has been amended with an appropriate concentration of spores or mycelium suspension of the test fungus.
(§3) With the aid of a photometer, the extinction in all wells is measured at the wavelength of 600 nm.
(§4) The microtiter plates are incubated for 3 to 7 days at 20° C. and 85% relative humidity. After the incubation inhibition of growth is determined photometrically. Efficacy is calculated in relation to the untreated control, 0% efficacy means fungal growth as high as in untreated control while 100% efficacy means no fungal growth is measured.
(§5) The data in tables A1 to A12, B1 to B14, C1 to C10, D1 to D8, E1 to E8, F1 to F11, G1 to G4, H1 to H4 and I1 to I5 were collected according to Method A. The data in tables A13 to A22, B15 to B18, C11 to C20, E9 to E16, F12 to F15, G5 to G15, H5 to H8, I6 to I11 and J1 to J11 were collected according to Method B.

[2] = test system: Colletotrichum lindemuthianum; assay: in vitro-Test with fungal microorganisms, Method A (tables D1-D8); type: cell-based
Experimental: as §1
as §2, with “10” for “30”, “100” for “200”, “potato dextrose” for “growth”, “given into each well,” for “given,”
(§6) With the aid of a photometer, the extinction in all wells is measured at the wavelength of 620 nm.
as §4, with “incubated” for “incubated for 3 to 7 days”, “The” for “After the incubation”, “again photometrically 3-5 days after the application.” for “photometrically.”
as §5

Cercospora beticola [3] = assay: in vitro-Test with fungal microorganisms, Method B (tables C11-C20); type: cell-based
Experimental: as §1, §2, §3, §4, §5

Alternaria alternate = assay: in vitro-Test with fungal microorganisms, Method A (tables A1-A12); type: cell-based, Alternaria alternata; conditions: applied alone
Experimental: as §1
as §2, with “10” for “30”, “100” for “200”, “potato dextrose” for “growth”, “given into each well,” for “given,”
as §6
as §4, with “incubated” for “incubated for 3 to 7 days”, “The” for “After the incubation”, “again photometrically 3-5 days after the application.” for “photometrically.”
as §5

Alternaria alternata = assay: in vitro-Test with fungal microorganisms, Method B (tables A13-A22); type: cell-based; conditions: single compound
Experimental: as §1, §2, §3, §4, §5

Fusarium culmorum = assay: in vitro-Test with fungal microorganisms, Method B (tables G5-G15); type: cell-based
Experimental: as §1, §2, §3, §4, §5

Botrytis cinerea [4] = assay: in vitro-Test with fungal microorganisms, Method B (tables B15-B18); type: cell-based
Experimental: as §1, §2, §3, §4, §5

Cordana musae [5] = assay: in vitro-Test with fungal microorganisms, Method B (tables E9-E16); type: cell-based; conditions: for Efficacy: single active; for Efficacy %: single substance
Experimental: as §1, §2, §3, §4, §5

Colletotrichum coccodes = assay: in vitro-Test with fungal microorganisms, Method B (tables J1-J11); type: cell-based
Experimental: as §1, §2, §3, §4, §5

Diaporthe citri = assay: in vitro-Test with fungal microorganisms, Method A (tables F1-F11); type: cell-based; conditions: applied alone
Experimental: as §1
as §2, with “10” for “30”, “100” for “200”, “potato dextrose” for “growth”, “given into each well,” for “given,”
as §6
as §4, with “incubated” for “incubated for 3 to 7 days”, “The” for “After the incubation”, “again photometrically 3-5 days after the application.” for “photometrically.”
as §5

[6] = test system: Ustilago segetum var. avenae; assay: in vitro-Test with fungal microorganisms, Method A (tables I1-I5); type: cell-based; conditions: alone
Experimental: as §1
as §2, with “10” for “30”, “100” for “200”, “potato dextrose” for “growth”, “given into each well,” for “given,”
as §6
as §4, with “incubated” for “incubated for 3 to 7 days”, “The” for “After the incubation”, “again photometrically 3-5 days after the application.” for “photometrically.”
as §5

Cercospora beticola [7] = assay: in vitro-Test with fungal microorganisms, Method A (tables C1-C10); type: cell-based
Experimental: as §1
as §2, with “10” for “30”, “100” for “200”, “potato dextrose” for “growth”, “given into each well,” for “given,”
as §6
as §4, with “incubated” for “incubated for 3 to 7 days”, “The” for “After the incubation”, “again photometrically 3-5 days after the application.” for “photometrically.”
as §5

Botrytis cinerea [8] = assay: in vitro-Test with fungal microorganisms, Method A (tables B1-B14); type: cell-based; conditions: for Efficacy %: alone
Experimental: as §1
as §2, with “10” for “30”, “100” for “200”, “potato dextrose” for “growth”, “given into each well,” for “given,”
as §6
as §4, with “incubated” for “incubated for 3 to 7 days”, “The” for “After the incubation”, “again photometrically 3-5 days after the application.” for “photometrically.”
as §5

Cordana musae [9] = assay: in vitro-Test with fungal microorganisms, Method A (tables E1-E8); type: cell-based
Experimental: as §1
as §2, with “10” for “30”, “100” for “200”, “potato dextrose” for “growth”, “given into each well,” for “given,”
as §6
as §4, with “incubated” for “incubated for 3 to 7 days”, “The” for “After the incubation”, “again photometrically 3-5 days after the application.” for “photometrically.”
as §5

[10] = single active compound, 0.04 ppm
[11] = single active compound, 0.2 ppm

`Cn1cc(C(=O)Nc2ccc(F)cc2-c2ccc(Cl)c(Cl)c2)c(C(F)F)n1` [(2.002) bixafen, bixafen] was tested, and the Efficacy % ([1]; 0.2 ppm) was 44%, the Efficacy % ([2]; single active at 0.008 ppm) was 6% and 0% and the Efficacy % ([2]; single active at 0.04 ppm) was 0%. For the same compound, the Efficacy % ([2]; single active at 0.2 ppm) was 0%, the Efficacy % (Cercospora beticola [3]; 1 ppm) was 0% and the Efficacy % (Cercospora beticola [3]; single compound, 0.2 ppm) was 14%. The Efficacy % (Cercospora beticola [3]; single compound, 1 ppm) was 20%, the Efficacy % (Alternaria alternate; 0.008 ppm) was 29% and the Efficacy % (Alternaria alternate; 0.04 ppm) was 23%. The Efficacy % (Alternaria alternate; 0.2 ppm) was 66%, the Efficacy % (Alternaria alternate; 1.0 ppm) was 46% and the Efficacy (Alternaria alternata; 0.008 ppm) was 13% and 23%. The Efficacy (Alternaria alternata; 0.04 ppm) was 67%, the Efficacy (Alternaria alternata; 1 ppm) was 59% and 85% and the Efficacy (Fusarium culmorum; 0.008 ppm alone) was 2%. The Efficacy (Fusarium culmorum; 0.04 ppm alone) was 17%, the Efficacy (Fusarium culmorum; single active compound, 0.008 ppm) was 2% and the Efficacy (Fusarium culmorum; [10]) was 7%. It also gave an Efficacy (Fusarium culmorum; [11]) of 11%, an Efficacy (Fusarium culmorum; single active compound, 1 ppm) of 18% and an Efficacy % (Botrytis cinerea [4]; alone, 0.008 ppm) of 6%. For the same compound, the Efficacy % (Botrytis cinerea [4]; alone, 0.2 ppm) was 0%, the Efficacy % (Botrytis cinerea [4]; alone, 1 ppm) was 66% and the Efficacy (Cordana musae [5]; 0.008 ppm) was 17%. It also gave an Efficacy (Cordana musae [5]; 0.04 ppm) of 0%, an Efficacy (Cordana musae [5]; 0.2 ppm) of 0% and an Efficacy (Cordana musae [5]; 1 ppm) of 2%. The Efficacy % (Cordana musae [5]; 0.008 ppm) was 0%, the Efficacy % (Cordana musae [5]; 0.04 ppm) was 0% and the Efficacy % (Cordana musae [5]; 0.2 ppm) was 0%. For the same compound, the Efficacy % (Colletotrichum coccodes; 0.008 ppm) was 33%, the Efficacy % (Colletotrichum coccodes; 0.04 ppm) was 45% and the Efficacy % (Colletotrichum coccodes; 0.2 ppm) was 0%. For the same compound, the Efficacy % (Colletotrichum coccodes; 1 ppm) was 0%, the Efficacy % (Colletotrichum coccodes; single active compound at 0.008 ppm) was 30% and the Efficacy (Diaporthe citri; 0.2 ppm) was 0% and 5%. The Efficacy (Diaporthe citri; 1.0 ppm) was 0% and 5%, the Efficacy % ([6]; 0.008 ppm) was 0% and the Efficacy % ([6]; 0.04 ppm) was 0%. It also gave an Efficacy % ([6]; 0.2 ppm) of 100%, an Efficacy % ([6]; 1.0 ppm) of 100% and an Efficacy % (Cercospora beticola [7]; 0.2 ppm) of 0%. For the same compound, the Efficacy % (Cercospora beticola [7]; 1.0 ppm) was 0%, the Efficacy (Botrytis cinerea [8]; 0.04 ppm) was 22% and the Efficacy (Botrytis cinerea [8]; 0.2 ppm) was 63%. For the same compound, the Efficacy (Botrytis cinerea [8]; 1.0 ppm) was 67%, the Efficacy % (Cordana musae [9]; single substance, 0.008 ppm) was 0% and 8% and the Efficacy % (Cordana musae [9]; single substance, 0.04 ppm) was 2% and 0%. The Efficacy % (Cordana musae [9]; single substance, 0.2 ppm) was 0% and the Efficacy % (Cordana musae [9]; single substance, 1.0 ppm) was 0%.
`CC(C)c1ccc(Cl)cc1CN(C(=O)c1c(C(F)F)nn(C)c1F)C1CC1` [(2.038) isoflucypram, isoflucypram] was tested, and the Efficacy % ([1]; 0.008 ppm) was 9%, the Efficacy % ([1]; 0.04 ppm) was 17% and the Efficacy % ([1]; 0.2 ppm) was 100%. For the same compound, the Efficacy % ([1]; alone, 0.008 ppm) was 2%, the Efficacy % ([1]; alone, 0.04 ppm) was 5% and the Efficacy % ([1]; alone, 0.2 ppm) was 100%. It also gave an Efficacy % ([2]; single active at 0.008 ppm) of 0%, an Efficacy % ([2]; single active at 0.04 ppm) of 14% and an Efficacy % ([2]; single active at 0.2 ppm) of 0%. The Efficacy % ([2]; single active at 1.0 ppm) was 18%, the Efficacy % (Cercospora beticola [3]; 0.008 ppm) was 8% and the Efficacy % (Cercospora beticola [3]; 0.04 ppm) was 14%. The Efficacy % (Cercospora beticola [3]; 0.2 ppm) was 16%, the Efficacy % (Cercospora beticola [3]; 1 ppm) was 44% and the Efficacy % (Cercospora beticola [3]; single compound, 0.04 ppm) was 14% and 13%. For the same compound, the Efficacy % (Cercospora beticola [3]; single compound, 1 ppm) was 40% and 35%, the Efficacy % (Alternaria alternate; 0.008 ppm) was 43% and 52% and the Efficacy % (Alternaria alternate; 0.04 ppm) was 70% and 71% and 74%. For the same compound, the Efficacy % (Alternaria alternate; 0.2 ppm) was 77% and 85% and 83%, the Efficacy % (Alternaria alternate; 1.0 ppm) was 82% and 84% and the Efficacy (Alternaria alternata; 0.008 ppm) was 22%. The Efficacy (Alternaria alternata; 1 ppm) was 77%, the Efficacy (Fusarium culmorum; 0.008 ppm alone) was 0% and the Efficacy (Fusarium culmorum; 0.04 ppm alone) was 0%. It also gave an Efficacy (Fusarium culmorum; 0.2 ppm alone) of 10%, an Efficacy (Fusarium culmorum; 1 ppm alone) of 24% and an Efficacy (Fusarium culmorum; [10]) of 10%. The Efficacy (Fusarium culmorum; [11]) was 19% and 20%, the Efficacy % (Botrytis cinerea [4]; 0.2 ppm alone) was 53% and the Efficacy % (Botrytis cinerea [4]; 1 ppm alone) was 70%. It also gave an Efficacy (Cordana musae [5]; 0.2 ppm) of 9%, an Efficacy (Cordana musae [5]; 1 ppm) of 20% and an Efficacy % (Colletotrichum coccodes; 0.008 ppm) of 0%. For the same compound, the Efficacy % (Colletotrichum coccodes; 0.04 ppm) was 46%, the Efficacy % (Colletotrichum coccodes; 0.2 ppm) was 8% and the Efficacy % (Colletotrichum coccodes; 1 ppm) was 0%. For the same compound, the Efficacy % (Colletotrichum coccodes; single active compound at 0.04 ppm) was 0% and 1%, the Efficacy (Diaporthe citri; 0.008 ppm) was 0% and the Efficacy (Diaporthe citri; 0.04 ppm) was 0%. For the same compound, the Efficacy (Diaporthe citri; 1.0 ppm) was 30% and 38%, the Efficacy % ([6]; 0.008 ppm) was 6% and 0% and the Efficacy % ([6]; 0.2 ppm) was 100%. For the same compound, the Efficacy % ([6]; 1.0 ppm) was 100%, the Efficacy % (Cercospora beticola [7]; 0.008 ppm alone) was 10% and the Efficacy % (Cercospora beticola [7]; 0.04 ppm alone) was 0%. For the same compound, the Efficacy % (Cercospora beticola [7]; 0.2 ppm alone) was 44%, the Efficacy % (Cercospora beticola [7]; 1.0 ppm alone) was 69% and the Efficacy (Botrytis cinerea [8]; 1.0 ppm) was 75%. It also gave an Efficacy % (Botrytis cinerea [8]; 0.008 ppm) of 5%, an Efficacy % (Botrytis cinerea [8]; 0.04 ppm) of 53% and an Efficacy % (Botrytis cinerea [8]; 0.2 ppm) of 58%. It also gave an Efficacy % (Botrytis cinerea [8]; 1.0 ppm) of 77%, an Efficacy % (Cordana musae [9]; mixing partner alone, 0.008 ppm) of 0% and an Efficacy % (Cordana musae [9]; mixing partner alone, 0.04 ppm) of 0%. For the same compound, the Efficacy % (Cordana musae [9]; mixing partner alone, 0.2 ppm) was 0%, the Efficacy % (Cordana musae [9]; mixing partner alone, 1.0 ppm) was 0% and the Efficacy % (Cordana musae [9]; single substance, 0.008 ppm) was 0%. For the same compound, the Efficacy % (Cordana musae [9]; single substance, 0.04 ppm) was 0%, the Efficacy % (Cordana musae [9]; single substance, 0.2 ppm) was 0% and 1% and the Efficacy % (Cordana musae [9]; single substance, 1.0 ppm) was 22% and 27%.
